Drawing on patent publication EP0690048A1, “Ortho-amino substituted benzoylguanidines, process for their preparation, their use as medicine or diagnostic and medicines containing them” (HOECHST AKTIENGESELLSCHAFT, priority 1994, dated 1996), this text covers IC50 for four molecules.

Counter-ions that a name gives are not always drawn.

T1 sequence (P23791 whole entry): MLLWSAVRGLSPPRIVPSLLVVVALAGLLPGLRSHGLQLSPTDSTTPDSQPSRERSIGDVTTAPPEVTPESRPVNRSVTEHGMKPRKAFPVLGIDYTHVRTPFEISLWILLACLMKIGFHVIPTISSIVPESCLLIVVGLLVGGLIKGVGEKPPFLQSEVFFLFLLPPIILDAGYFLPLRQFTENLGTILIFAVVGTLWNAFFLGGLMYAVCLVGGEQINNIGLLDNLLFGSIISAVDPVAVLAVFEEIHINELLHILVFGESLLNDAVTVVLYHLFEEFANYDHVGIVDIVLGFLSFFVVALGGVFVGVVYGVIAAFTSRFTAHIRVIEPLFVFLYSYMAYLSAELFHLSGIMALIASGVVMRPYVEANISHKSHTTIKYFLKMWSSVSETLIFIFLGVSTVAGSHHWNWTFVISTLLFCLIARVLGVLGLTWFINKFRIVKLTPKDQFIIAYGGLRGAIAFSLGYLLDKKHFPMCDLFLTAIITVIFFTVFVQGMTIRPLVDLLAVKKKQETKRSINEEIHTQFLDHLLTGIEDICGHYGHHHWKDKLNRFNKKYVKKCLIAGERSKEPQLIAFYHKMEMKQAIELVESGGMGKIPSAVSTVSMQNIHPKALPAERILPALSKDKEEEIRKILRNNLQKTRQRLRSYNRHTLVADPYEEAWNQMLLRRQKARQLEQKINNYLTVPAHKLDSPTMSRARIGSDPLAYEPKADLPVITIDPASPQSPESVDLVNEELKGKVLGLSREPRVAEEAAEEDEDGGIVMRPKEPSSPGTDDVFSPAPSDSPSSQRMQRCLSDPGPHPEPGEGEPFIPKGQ

The test has as its target T1, Na⁺/H⁺-Exchangers von Kaninchenerythrocyten (Oryctolagus cuniculus, UniProt P23791).
T1 construct: den Na⁺-Influx in die Erythrocyten via Na⁺/H⁺-Austausch flammenphotometrisch bestimmen zu können; endogenous in cells; host or cells: erythrocytes in blood from the ear arteries of cholesterol-fed White New Zealand rabbits
Put plainly: Inhibition of the Na+/H+ exchanger of rabbit erythrocytes (amiloride-sensitive sodium influx, flame photometry). Type of test: cell-based, Kaninchen. Conditions: Inhibition des Na⁺/H⁺-Exchangers, hyperosmolares Salz-Sucrose-Medium, pH 7,4, 37°C, read-out: IC₅₀. The source says: Inhibition des Na⁺/H⁺-Exchangers von Kaninchenerythrocyten
Weiße Neuseeland-Kaninchen (Ivanovas) erhielten eine Standard-Diät mit 2% Cholesterin für sechs Wochen, um den Na⁺/H⁺-Austausch zu aktivieren und so den Na⁺-Influx in die Erythrocyten via Na⁺/H⁺-Austausch flammenphotometrisch bestimmen zu können. Das Blut wurde den Ohrarterien entnommen und durch 25 IE Kalium-Heparin ungerinnbar gemacht. Ein Teil jeder Probe wurde zur Doppelbestimmung des Hämatokrits durch Zentrifugieren benutzt. Aliquots von jeweils 100 µl dienten zur Messung des Na⁺-Ausgangsgehalts der Erythrocyten.
Um den Amilorid-sensitiven Natrium-Influx zu bestimmen, wurden 100 µl jeder Blutprobe in jeweils 5 ml eines hyperosmolaren Salz-Sucrose-Mediums (mmol/l: 140 NaCl, 3 KCl, 150 Sucrose, 0,1 Ouabain, 20 Tris-hydroxymethylaminomethan) bei pH 7,4 und 37°C inkubiert. Die Erythrozyten wurden danach dreimal mit eiskalter MgCl₂-Ouabain-Lösung (mmol/l: 112 MgCl₂, 0,1 Ouabain) gewaschen und in 2,0 ml destilliertem Wasser hämolysiert. Der intrazelluläre Natriumgehalt wurde flammenphotometrisch bestimmt.
Der Na⁺-Nettoinflux wurde aus der Differenz zwischen Natrium-Ausgangswerten und dem Natriumgehalt der Erythrocyten nach Inkubation errechnet. Der Amilorid-hemmbare Natrium-Influx ergab sich aus der Differenz des Natriumgehalts der Erythrocyten nach Inkubation mit und ohne Amilorid 3 x 10⁻⁴ mol/l. Auf diese Weise wurde auch bei den erfindungsgemäßen Verbindungen verfahren.
As for `NC(N)=NC(=O)c1cc(S(N)(=O)=O)c(Cl)cc1N` [Beispiel 1, 2-Amino-4-chloro-5-sulfamoyl-benzoylguanidin-dihydrochlorid], the IC50 lay within 2000 to 3000 nM. For `NC(N)=NC(=O)c1cc(Br)c(Br)cc1N` [Beispiel 11, 2-Amino-4,5-dibromo-benzoylguanidin], the IC50 was determined as 100 nM. The value for `CN(C)c1ccc(Cl)cc1C(=O)N=C(N)N` [Beispiel 12, 2-Dimethylamino-5-chloro-benzoylguanidin-dihydrochlorid] was 1000 to 2000 nM; that for `NC(N)=NC(=O)c1cc(Cl)ccc1N` [Beispiel 9, 2-Amino-5-chloro-benzoylguanidin-dihydrochlorid] was 1000 to 2000 nM.
